Reference: patent US20220313626A1, “SMALL MOLECULE INHIBITORS FOR TREATING CANCER IN A SUBJECT HAVING TUMORS WITH HIGH INTERSTITIAL PRESSURE” (GUANGZHOU MAXINOVEL PHARMACEUTICALS CO., LTD., priority 2019, published 2022)

Tested on: 4T1 tumor cells
Assay: Anti-tumor efficacy in the subcutaneous 4T1 murine breast cancer model in BALB/c mice
Assay type: in vivo
Details: 4T1, BALB/c mice; for TGI / Tumor Volume: PO, BID, 20 days
Description: Materials required for the experiment: Antibody: mouse PD-1 antibody, Product specifications: 7.09 mg/mL (50 mg/mL), Lot No.: 695318A1 purchased from BioXcell, storage at 4 °C. Experiment animal: 60 BALB/C mice, female, 6˜8 weeks old, 20˜23 g, purchased from Shanghai Lingchang Biotechnology Co, Ltd. Formulation material: castor oil (Cremophor RH40), CAS No.: 61788-85-0, Lot No.: 29761847G0, purchased from Shanghai Xietai Chemical Co. Ltd.; β-cyclodextrin (SBE-β-CD), CAS No.:128446-35-5, Lot No.: 20180110, purchased from Shanghai Shaoyuan Chemical Co. Ltd.; RPMI-1640 culture medium, Art. No.: 1869036, Lot No.:11875-093, purchased from Gibco Co. Ltd.; PBS, Art. No.: SH30256.01, Lot No.: AB10141338, purchased from HyClone Co. Ltd.; Fetal bovine serum: CAS No.: 10099-141, Lot No.: 1966174C, purchased from Gibco Co. Ltd.
Cell preparation and implantation: 4T1 cells (CRL-2539™) were cultured with RPMI 1640 supplemented with 10% heat inactivated FBS at 37° C. in 5% CO2 incubator. Cells were passaged 3 times a week. Cells were harvested, counted and passaged, inoculated when around 70% confluent.
Tumor cell inoculation and group administration: The 50 uL cell suspension containing 1×10^5 4T1 tumor cells (cells suspended in base RPMI-1640 medium) was inoculated into the fourth fat pad of the left abdomen of mice. On the second day after inoculation, according to the order of tumor inoculation, stratified randomization was used to group and start the administration on the day of grouping.
Preparation of test substances: Preparation of formulation: 490 mL of sterile water was added into the volumetric flask with magnetic stirring to have a vortex. 100 g of castor oil (Cremophor RH40) was added with a spoon slowly into the vortex and the solution was kept stirring. 200 g of β-cyclodextrin (SBE-β-CD) was added while the solution was kept stirring until the solution was clear, and the total volume was set to 1000 mL, which contained 10% (w/v) Cremophor RH40+20% (w/v) an aqueous solution of SBE-β-CD.
Preparation of Compound Suspension: 178.88 mg compound was weighed and 14.817 mL 10% (w/v) Cremophor RH40+20% (w/v) SBE-β-CD aqueous solution were added. The suspension solution with a concentration of 12.0 mg/mL was obtained by fully mixing with magnetic stirring. 7.0 mL of the compound suspension solution with concentration of 12.0 mg/mL was pipetted and 7.0 mL aqueous formulation solution was added. The suspension solution with a concentration of 6.0 mg/mL was obtained by fully mixing with magnetic stirring, 7.0 mL of the compound suspension solution with concentration of 6.0 mg/mL was pipetted and 7.0 mL aqueous formulation solution was added. The suspension solution with a concentration of 3.0 mg/mL was obtained by fully mixing with magnetic stirring. 7.0 mL of the compound suspension solution with concentration of 3.0 mg/mL was pipetted and 7.0 mL aqueous formulation solution was added. The suspension solution with a concentration of 1.5 mg/mL was obtained by fully mixing with magnetic stirring. The compound suspension solution was prepared once a day.
Preparation of mPD-1 Antibody: 0.339 mL mPD-L1 antibody (7.09 mg/mL) original solution was pipetted and 2.061 mL PBS solution was added. The solution was fully mixed and the final concentration of 1 mg/mL solution was obtained.
Procedure: The mice in the vehicle group were weighed and recorded in the electronic balance according to their numbers. The mice in the vehicle group were given prepared formulation solution twice a day by oral administration according to their body weight with a capacity of 0.1 mL/10 g. Each mouse spent about 20 seconds and 10 mice in each group shared for about 5 minutes.
The mice in the antibody (10 mg/kg) group were weighed and recorded in the electronic balance according to their numbers. The mice in the antibody group were given prepared antibody solution twice a week by IP administration according to their body weight with a capacity of 0.1 ml/10 g. […]

Cc1c(/C=C/c2cc(CN[C@@](C)(CO)C(=O)O)ccc2C(F)(F)F)cccc1-c1ccccc1 [Compound]
TGI (15 mg/kg): 19.96% | Tumor Volume (15 mg/kg): 689.03 ± 43.97 mm^3 | TGI (30 mg/kg): 33.34% | Tumor Volume (30 mg/kg): 573.9 ± 43.18 mm^3 | TGI (60 mg/kg): 36.32% | Tumor Volume (60 mg/kg): 548.24 ± 31.39 mm^3 | TGI (120 mg/kg): 41.55% | Tumor Volume (120 mg/kg): 503.16 ± 32.93 mm^3 | minimum effective dose (p<0.05): 30 mpk
